Data: patent US6664231B1, “Anti-fungal peptides” (priority 1993, dated 2003)

System: polyene-resistant (ATCC 38247), 5-fluorocytosine-resistant (ATCC 44373), azole-resistant (ATCC 62342), ketoconazole-resistant (ATCC 64124) C. albicans
Assay: Fungicidal activity on commercially-available drug-resistant Candida strains
Type: cell-based, Candida albicans
Settings: ATCC 38247, 44373, 62342, 64124
Protocol: Further experiments were performed to determine the anti-fungal activity of Domain III derived peptides on commercially-available strains of Candida considered resistant to other anti-fungal agents: polyene-resistant C. albicans (ATCC Accession No. 38247), 5-fluorocytosine-resistant C. albicans (ATCC No. 44373), azole-resistant C. albicans (ATCC No. 62342), and ketoconazole-resistant C. albicans (ATCC No. 64124).

In the case of H-KSKVGWLIQLFHKK-NH2 [XMP.13], the “Fungicidal activity on resistant strains” value was “not reduced”.
